According to BigSolDB 2.1:

COC(=O)[C@H](c1ccccc1Cl)N1CCc2sccc2C1.O=S(=O)(O)O
solubility (mole fraction)
Settings | 273.15 K | 278.15 K | 283.15 K | 288.15 K | 293.15 K | 298.15 K | 303.15 K | 308.15 K
in MTBE | 6.2e-05 | 6.5e-05 | 7.5e-05 | 8.6e-05 | 0.000101 | 0.00011 | 0.000122 | 0.000125
in acetone | 0.0188 | 0.0262 | 0.0339 | 0.0436 | 0.0474 | 0.0567 | 0.0672 | 0.076
in ethyl acetate | 0.000278 | 0.000325 | 0.000342 | 0.000401 | 0.000457 | 0.000511 | 0.000543 | 0.000619
in isopropanol | 0.00815 | 0.0113 | 0.0132 | 0.0198 | 0.0237 | 0.0305 | 0.0382 | 0.0463
in methyl acetate | 0.000959 | 0.00103 | 0.00112 | 0.00122 | 0.00133 | 0.00151 | 0.00188 | 0.00214
in n-butanol | 0.0502 | 0.056 | 0.0655 | 0.0686 | 0.0771 | 0.08 | 0.0869 | 0.0952
in sec-butanol | 0.00377 | 0.00528 | 0.00678 | 0.00961 | 0.0127 | 0.016 | 0.0191 | 0.0238
